Assay results published in patent US20210261538A1, “PROTEIN ARGININE METHYLTRANSFERASE 5 (PRMT5) DEGRADATION / DISRUPTION COMPOUNDS AND METHODS OF USE” (ICAHN SCHOOL OF MEDICINE AT MOUNT SINAI, priority 2018, published 2021).
Entries after “also recorded” stand apart in the source; their conditions may differ.

Biological target: PRMT5 (Homo sapiens, UniProt O14744)
Test: Western blot of PRMT5 protein levels in MCF-7 cells
Format: cell-based
Set-up: endogenous in cells; host or cells: MCF-7
Protocol: MCF-7 cells, HEK293T cells and HeLa cells were cultured in Dulbecco's Modified Eagle Medium (DMEM) supplemented with 10% fetal bovine serum (FBS) in 5% CO2 at 37° C. Jurkat cells were cultured in RPMI 1640 medium supplemented with 10% FBS in 5% CO2 at 37° C. H2171 cells were cultured in HITES medium supplemented with 10% FBS in 5% CO2 at 37° C. HCT116 were cultured in McCoy's 5A medium supplemented with 10% fetal bovine serum (FBS) in 5% CO2 at 37° C. All the cells lines were treated with 5 μM (or indicated concentration) of PRMT5 inhibitor (EPZ015666) or degraders, or equivalent volume of DMSO for 6 days (or indicated time points). Fresh compounds were constituted in medium and used for every 2 days. The antibodies used in this study are: PRMT5 antibody (Active Motif), (3-actin antibody (Sigma), SDMA antibody (collaboration with Cell Signaling Technologies). Cell cultures were harvested at the end of compound treatments and applied subjected to western blotting assay. Briefly, cells were washed with PBS and lysed with RIPA lysis buffer for 20 minutes on ice. Then lysates were centrifuged and the clear supernatant were collected. SDS loading buffer was added to the lysates and then the mixture was boiled at 100° C. for 5 minutes. Samples were loaded to 10% or 12% SDS-PAGE gel and ran at 120V for 1.5 hours. Then the proteins were transferred to PVDF membrane and blocked in 5% milk fat at room temperature for 1 hour. Then the membranes were incubated with indicated antibodies at 4° C. overnight. Membranes were washed with PBST buffer three times for 10 minutes each time and incubated with HRP-conjugated (horse radish peroxidase) secondary antibodies at room temperature for 1 hour. Again the membranes were washed with PBST buffer three times for 10 minutes each time. Finally, the indicated proteins on the membranes were visualized with ECL (enhanced chemiluminescence) reagents. MCF-7 cells were treated with DMSO or indicated compounds at 5 μM for 6 days. […] MCF-7 cells were treated with DMSO or indicated serial dilutions of compounds for 6 days. The PRMT5 protein levels were determined by Western blot.

PRMT5, sequence (O14744 whole entry): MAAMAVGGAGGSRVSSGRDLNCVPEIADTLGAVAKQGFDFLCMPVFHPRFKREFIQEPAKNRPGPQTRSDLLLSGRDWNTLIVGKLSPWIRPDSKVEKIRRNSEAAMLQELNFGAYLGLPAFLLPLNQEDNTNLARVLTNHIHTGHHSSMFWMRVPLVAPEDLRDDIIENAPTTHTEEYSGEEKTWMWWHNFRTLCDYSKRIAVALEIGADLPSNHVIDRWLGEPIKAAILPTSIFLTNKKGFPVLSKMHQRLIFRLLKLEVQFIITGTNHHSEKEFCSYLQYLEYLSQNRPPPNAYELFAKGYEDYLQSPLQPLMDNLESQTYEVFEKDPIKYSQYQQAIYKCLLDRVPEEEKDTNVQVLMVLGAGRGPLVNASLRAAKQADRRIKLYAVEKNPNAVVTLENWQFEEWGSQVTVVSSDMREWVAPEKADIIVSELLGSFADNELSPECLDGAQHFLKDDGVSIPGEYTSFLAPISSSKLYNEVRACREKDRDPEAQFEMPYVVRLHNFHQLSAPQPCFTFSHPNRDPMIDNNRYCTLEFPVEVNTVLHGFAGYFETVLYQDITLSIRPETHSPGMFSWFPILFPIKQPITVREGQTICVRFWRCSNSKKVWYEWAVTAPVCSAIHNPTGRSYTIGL
PRMT5, sequence (Q9BQA1 whole entry partner): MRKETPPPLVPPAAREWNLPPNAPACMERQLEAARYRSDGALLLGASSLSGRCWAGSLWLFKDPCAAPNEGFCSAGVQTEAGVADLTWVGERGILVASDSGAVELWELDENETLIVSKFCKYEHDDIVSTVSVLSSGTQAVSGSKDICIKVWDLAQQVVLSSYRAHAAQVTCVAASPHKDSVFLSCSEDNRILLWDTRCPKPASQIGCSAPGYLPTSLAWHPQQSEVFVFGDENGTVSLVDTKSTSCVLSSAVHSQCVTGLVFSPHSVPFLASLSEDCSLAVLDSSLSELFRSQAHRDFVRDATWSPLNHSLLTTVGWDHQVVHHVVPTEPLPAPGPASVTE

Structure (SMILES): Cc1ncsc1-c1ccc([C@H](C)NC(=O)[C@@H]2C[C@@H](O)CN2C(=O)[C@@H](NC(=O)COCCOCCOCCOCCOCC(=O)N2CC(Nc3cc(C(=O)NC[C@H](O)CN4CCc5ccccc5C4)ncn3)C2)C(C)(C)C)cc1 [YS43-22, N-((S)-3-(3,4-dihydroisoquinolin-2(1H)-yl)-2-hydroxypropyl)-6-((1-((S)-19-((2S,4R)-4-hydroxy-2-(((S)-1-(4-(4-methylthiazol-5-yl)phenyl)ethyl)carbamoyl)pyrrolidine-1-carbonyl)-20,20-dimethyl-17-oxo-3,6,9,12,15-pentaoxa-18-azahenicosanoyl)azetidin-3-yl)amino)pyrimidine-4-carboxamide]
- suppressing PRMT5 expression (MCF-7 cells (Examples 90-92)): especially effective
- PRMT5 protein levels (MCF-7 cells, 5 μM, 6 days, Western blot): very well
- PRMT5 protein levels, concentration and time dependence (MCF-7 cells, serial dilutions of compounds, 6 days, Western blot): concentration- and time-dependent; also recorded: significantly reduced
